We go through 29 compounds from US20110098288A1, “SULFONAMIDES AS ZAP-70 INHIBITORS” (priority 2008, published 2011).

Each structure is given as a SMILES string. Where a name gives a salt, the structure may show the parent alone.

The assay addresses T1, ZAP-70 (Homo sapiens, UniProt P43403).
T1 construct: endogenous in cells; host or cells: cell lysate
T1 sequence (P43403 1-619): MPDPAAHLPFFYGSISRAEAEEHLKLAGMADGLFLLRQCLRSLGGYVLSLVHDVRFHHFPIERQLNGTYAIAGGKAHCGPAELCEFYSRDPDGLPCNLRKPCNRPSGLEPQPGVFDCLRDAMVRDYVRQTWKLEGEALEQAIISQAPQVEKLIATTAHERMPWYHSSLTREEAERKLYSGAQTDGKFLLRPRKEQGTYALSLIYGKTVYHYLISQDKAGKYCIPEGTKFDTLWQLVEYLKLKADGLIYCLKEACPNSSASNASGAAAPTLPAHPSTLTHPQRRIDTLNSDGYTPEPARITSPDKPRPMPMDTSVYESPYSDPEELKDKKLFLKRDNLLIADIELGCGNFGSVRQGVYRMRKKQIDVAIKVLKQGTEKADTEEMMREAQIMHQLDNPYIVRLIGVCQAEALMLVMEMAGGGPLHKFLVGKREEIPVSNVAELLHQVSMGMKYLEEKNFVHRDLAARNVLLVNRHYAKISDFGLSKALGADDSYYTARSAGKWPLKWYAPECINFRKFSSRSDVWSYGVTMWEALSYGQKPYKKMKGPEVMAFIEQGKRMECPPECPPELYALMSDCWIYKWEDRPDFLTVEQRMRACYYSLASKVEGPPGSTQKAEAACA
The assay can be described thus: ZAP-70 kinobeads assay. Format: binding. Particulars: competition with immobilized aminopyrido-pyrimidine ligand 24 in cell lysate; ZAP-70 detected by dot blot. On the procedure: The compounds of the present invention as described in the previous examples can be tested in the ZAP-70 kinobeads assay as described (EP-A 1862802 and WO-A 2007/137867). Briefly, test compounds (at various concentrations) and the affinity matrix with the immobilized aminopyrido-pyrimidine ligand 24 are added to cell lysate aliquots and allowed to bind to the proteins in the lysate sample. After the incubation time the beads with captured proteins are separated from the lysate. Bound proteins are then eluted and the presence ZAP-70 is detected and quantified using a specific antibody in a dot blot procedure and the Odyssey infrared detection system. Conventionally, ZAP-70 kinase activity can be measured using purified or recombinant enzyme in a solution-based assay with protein or peptide substrates (Isakov et al., 1996, J. Biol. Chem. 271(26), 15753-15761; Moffat et al., 1999, Bioorg. Med. Chem. Letters 9, 3351-3356).
`CS(=O)(=O)Nc1ccccc1Nc1nc(Nc2cccc(OCC(=O)O)c2)ncc1F` [Example 99, 2-(3-(5-fluoro-4-(2-(methylsulfonamido)phenylamino)pyrimidin-2-ylamino)phenoxy)acetic acid hydrochloride] gave an IC50 of 100 to 1000 nM.
In the case of `CCN(CC)C(=O)COc1cccc(Nc2ncc(F)c(Nc3ccccc3NS(C)(=O)=O)n2)c1` [Example 100, N,N-diethyl-2-(3-(5-fluoro-4-(2-(methylsulfonamido)phenylamino)pyrimidin-2-ylamino)phenoxy)acetamide 2,2,2-trifluoroacetate] it was 100 to 1000 nM; in that of `CS(=O)(=O)Nc1ccccc1Nc1nc(Nc2ccccc2)ncc1Br` [Example 102, N-(2-(5-bromo-2-(phenylamino)pyrimidin-4-ylamino)phenyl)methanesulfonamide hydrochloride], 100 to 1000 nM.
In the case of `CS(=O)(=O)Nc1ccccc1Nc1nc(Nc2cccc(OC(F)F)c2)ncc1Br` [Example 103, N-(2-(5-bromo-2-(3-(difluoromethoxy)phenylamino)pyrimidin-4-ylamino)phenyl)methanesulfonamide] it was 100 to 1000 nM; in that of `COc1ccc(Nc2ncc(F)c(Nc3ccccc3N(C)S(C)(=O)=O)n2)cc1` [Example 108, N-(2-(5-fluoro-2-(4-methoxyphenylamino)pyrimidin-4-ylamino)phenyl)-N-methylmethanesulfonamide], 1000 to 10000 nM.
Consider `COc1ccc(Nc2ncc(F)c(Nc3ccccc3N(C)S(C)(=O)=O)n2)cc1OC` [Example 109, N-(2-(2-(3,4-dimethoxyphenylamino)-5-fluoropyrimidin-4-ylamino)phenyl)-N-methylmethanesulfonamide], for which the IC50 lay in the range of 100 to 1000 nM.
Next, `CN(c1ccccc1Nc1nc(Nc2ccc(OCCN3CCCCC3)cc2)ncc1F)S(C)(=O)=O` [Example 110, N-(2-(5-fluoro-2-(4-(2-(piperidin-1-yl)ethoxy)phenylamino)pyrimidin-4-ylamino)phenyl)-N-methylmethanesulfonamide]: 100 to 1000 nM.
`CN(c1ccccc1Nc1nc(Nc2ccc(OCCN3CCOCC3)cc2)ncc1F)S(C)(=O)=O` [Example 111, N-(2-(5-fluoro-2-(4-(2-morpholinoethoxy)phenylamino)pyrimidin-4-ylamino)phenyl)-N-methylmethanesulfonamide] showed a concentration for half-maximal inhibition (IC50) of 100 to 1000 nM.
Next, `COCCOc1cccc(Nc2ncc(F)c(Nc3cccc(C)c3NS(C)(=O)=O)n2)c1` [Example 115, N-(2-(5-fluoro-2-(3-(2-methoxyethoxy)phenylamino)pyrimidin-4-ylamino)-6-methylphenyl)methanesulfonamide]: 100 to 1000 nM; `COc1cc(Nc2ncc(F)c(Nc3cccc(C)c3NS(C)(=O)=O)n2)cc(OCC(C)C)c1OC` [Example 119, N-(2-(5-fluoro-2-(3-isobutoxy-4,5-dimethoxyphenylamino)pyrimidin-4-ylamino)-6-methylphenyl)methanesulfonamide]: 100 to 1000 nM; `COc1cc(Nc2ncc(F)c(Nc3cccc(C)c3NS(C)(=O)=O)n2)cc(OCC2CC2)c1OC` [Example 120, N-(2-(2-(3-(cyclopropylmethoxy)-4,5-dimethoxyphenylamino)-5-fluoropyrimidin-4-ylamino)-6-methylphenyl)methanesulfonamide]: 100 to 1000 nM.
As for `Cc1cccc(Nc2nc(Nc3cccc(OC(C)C)c3)ncc2F)c1NS(C)(=O)=O` [Example 121, N-(2-(5-fluoro-2-(3-isopropoxyphenylamino)pyrimidin-4-ylamino)-6-methylphenyl)methanesulfonamide], the IC50 was 1000 to 10000 nM.
As to `CCCOc1cccc(Nc2ncc(F)c(Nc3cccc(C)c3NS(C)(=O)=O)n2)c1` [Example 122, N-(2-(5-fluoro-2-(3-propoxyphenylamino)pyrimidin-4-ylamino)-6-methylphenyl)methanesulfonamide], the half-inhibitory concentration (IC50) is 1000 to 10000 nM.
As to `CS(=O)(=O)Nc1ccccc1Nc1nc(Nc2cccc(OCCC3CCCN3)c2)ncc1Cl` (centres unmarked) [Example 131, N-(2-(5-chloro-2-(3-(2-(pyrrolidin-2-yl)ethoxy)phenylamino)pyrimidin-4-ylamino)phenyl)methanesulfonamide], the IC50 is < 100 nM.
Regarding `CS(=O)(=O)Nc1ccccc1Nc1nc(Nc2cccc(OCCN3CCNCC3)c2)ncc1Cl` [Example 133, N-(2-(5-chloro-2-(3-(2-(piperazin-1-yl)ethoxy)phenylamino)pyrimidin-4-ylamino)phenyl)methanesulfonamide trifluoroacetate], the half-inhibitory concentration (IC50) was < 100 nM.
In the case of `CC(C)OC(=O)COc1ccc(Nc2ncc(Cl)c(Nc3ccccc3NS(C)(=O)=O)n2)cc1` [Example 143, Isopropyl 2-(4-(5-chloro-4-(2-(methylsulfonamido)phenylamino)pyrimidin-2-ylamino)-phenoxy)acetate hydrochloride] it was 100 to 1000 nM; in that of `CCOC(=O)COc1ccc(Nc2ncc(F)c(Nc3ccccc3NS(C)(=O)=O)n2)cc1` [Example 144, Ethyl 2-(4-(5-fluoro-4-(2-(methylsulfonamido)phenylamino)pyrimidin-2-ylamino)phenoxy)acetate hydrochloride], 1000 to 10000 nM.
Next, `CS(=O)(=O)Nc1ccccc1Nc1nc(Nc2ccc(CC(=O)O)cc2)ncc1Cl` [Example 148, 2-(4-(5-chloro-4-(2-(methylsulfonamido)phenylamino)pyrimidin-2-ylamino)phenyl)acetic acid]: < 100 nM; `CS(=O)(=O)Nc1ccccc1Nc1nc(Nc2cccc(OCC(=O)O)c2)ncc1Cl` [Example 149, 2-(3-(5-chloro-4-(2-(methylsulfonamido)phenylamino)pyrimidin-2-ylamino)phenoxy)acetic acid hydrochloride]: 100 to 1000 nM.
With `COc1ccc(Nc2nc(Nc3ccc(OC)c(OC)c3)ncc2Cl)c(NS(C)(=O)=O)c1` [Example 153, N-(2-(5-chloro-2-(3,4-dimethoxyphenylamino)pyrimidin-4-ylamino)-5-methoxyphenyl)methanesulfonamide], the IC50 was < 100 nM.
Turning to `CCN(c1ccccc1Nc1nc(Nc2cc(C)cc(C)c2)ncc1F)S(C)(=O)=O` [Example 155, N-(2-(2-(3,5-dimethylphenylamino)-5-fluoropyrimidin-4-ylamino)phenyl)-N-ethylmethanesulfonamide], the 50% inhibitory concentration (IC50) was in the range of 1000 to 10000 nM.
Next, `CCN(c1ccccc1Nc1nc(Nc2ccc(OC)cc2)ncc1F)S(C)(=O)=O` [Example 156, N-ethyl-N-(2-(5-fluoro-2-(4-methoxyphenylamino)pyrimidin-4-ylamino)phenyl)methanesulfonamide]: 100 to 1000 nM.
With `CCN(c1ccccc1Nc1nc(Nc2ccc(OC)c(OC)c2)ncc1F)S(C)(=O)=O` [Example 157, N-(2-(2-(3,4-dimethoxyphenylamino)-5-fluoropyrimidin-4-ylamino)phenyl)-N-ethylmethanesulfonamide], the IC50 fell in the range of 1000 to 10000 nM.
In the case of `CCN(c1ccccc1Nc1nc(Nc2ccc(OCCN3CCOCC3)cc2)ncc1F)S(C)(=O)=O` [Example 159, N-ethyl-N-(2-(5-fluoro-2-(4-(2-morpholinoethoxy)phenylamino)pyrimidin-4-ylamino)phenyl)methanesulfonamide], the half-maximal inhibitory concentration (IC50) was 100 to 1000 nM.
Turning to `COc1ccc(Nc2nc(Nc3cc(OC)c(OC)c(OC)c3)ncc2F)c(NS(C)(=O)=O)c1C` [Example 163, N-(6-(5-fluoro-2-(3,4,5-trimethoxyphenylamino)pyrimidin-4-ylamino)-3-methoxy-2-methylphenyl)methanesulfonamide], the IC50 was 100 to 1000 nM.
As to `COc1cc(Nc2ncc(F)c(Nc3cc(F)c(F)cc3NS(C)(=O)=O)n2)cc(OC)c1OC` [Example 174, N-(4,5-difluoro-2-(5-fluoro-2-(3,4,5-trimethoxyphenylamino)pyrimidin-4-ylamino)phenyl)methanesulfonamide], the IC50 was 1000 to 10000 nM.
In the case of `COc1ccc(Nc2nc(Nc3ccc(OC)c(OC)c3)ncc2Br)c(NS(C)(=O)=O)c1` [Example 179, N-(2-(5-bromo-2-(3,4-dimethoxyphenylamino)pyrimidin-4-ylamino)-5-methoxyphenyl)methanesulfonamide] it was < 100 nM.
As to `COc1ccc(Nc2nc(Nc3ccc(OC)c(OC)c3)ncc2F)c(NS(C)(=O)=O)c1` [Example 180, N-(2-(2-(3,4-dimethoxyphenylamino)-5-fluoropyrimidin-4-ylamino)-5-methoxyphenyl)methanesulfonamide], the IC50 was < 100 nM.
Next, `COc1cc(Nc2ncc(F)c(Nc3cccc(C)c3N(C)S(C)(=O)=O)n2)cc(OC)c1OC` [Example 181, N-(2-(5-fluoro-2-(3,4,5-trimethoxyphenylamino)pyrimidin-4-ylamino)-6-methylphenyl)-N-methylmethanesulfonamide]: 100 to 1000 nM.

By IC50 is commonly meant the concentration at which inhibition is half-maximal. A high value points to weaker potency.
